# Patent publication US9725416B2, “Ethynyl derivatives” (Hoffmann-La Roche Inc., priority 2014, dated 2017)
# Target: T1, human mGlu4 receptor (Homo sapiens, UniProt Q14833)
# T1 construct: expressed in transfected cells; host or cells: HEK-293 (monoclonal, stably transfected)
# Test: Ca2+ mobilization in vitro assay on recombinant human mGlu4 expressed in HEK293 cells (mGlu4 PAM)
# Format: cell-based
# Details: for Emax: HEK293, maximal response in % of the maximal stimulatory effect obtained with saturating concentrations of L-AP4, read-out: Eff. (%); for EC50: HEK-293 cells, Ca2+ mobilization, L-AP4 added at EC20
# Procedure: Determination of EC50 Values Using a Ca2+ mobilization in vitro Assay on Recombinant Human mGlu4 Expressed in HEK293 cells:
# A monoclonal HEK-293 cell line stably transfected with a cDNA encoding for the human mGlu4 receptor was generated; for the work with mGlu4 Positive Allosteric Modulators (PAMs), a cell line with low receptor expression levels and low constitutive receptor activity was selected to allow the differentiation of agonistic versus PAM activity. Cells were cultured according to standard protocols (Freshney, 2000) in Dulbecco's Modified Eagle Medium with high glucose supplemented with 1 mM glutamine, 10% (vol/vol) heat-inactivated bovine calf serum, Penicillin/Streptomycin, 50 μg/ml hygromycin and 15 μg/ml blasticidin (all cell culture reagents and antibiotics from Invitrogen, Basel, Switzerland).
# About 24 hrs before an experiment, 5×10^4 cells/well were seeded in poly-D-lysine coated, black/clear-bottomed 96-well plates. The cells were loaded with 2.5 μM Fluo-4AM in loading buffer (1×HBSS, 20 mM HEPES) for 1 hr at 37° C. and washed five times with loading buffer. The cells were transferred into a Functional Drug Screening System 7000 (Hamamatsu, Paris, France), and 11 half logarithmic serial dilutions of test compound at 37° C. were added and the cells were incubated for 10-30 min. with on-line recording of fluorescence. Following this pre-incubation step, the agonist (2S)-2-amino-4-phosphonobutanoic acid (L-AP4) was added to the cells at a concentration corresponding to EC20 with on-line recording of fluorescence; in order to account for day-to-day variations in the responsiveness of cells, the EC20 of L-AP4 was determined immediately ahead of each experiment by recording of a full dose-response curve of L-AP4.
# Responses were measured as peak increase in fluorescence minus basal (i.e. fluorescence without addition of L-AP4), normalized to the maximal stimulatory effect obtained with saturating concentrations of L-AP4. Graphs were plotted with the % maximal stimulatory using XLfit, a curve fitting program that iteratively plots the data using Levenburg Marquardt algorithm. The single site competition analysis equation used was y=A+((B−A)/(1+((x/C)D))), where y is the % maximal stimulatory effect, A is the minimum y, B is the maximum y, C is the EC50, x is the log 10 of the concentration of the competing compound and D is the slope of the curve (the Hill Coefficient). From these curves the EC50 (drug concentration at which 50% of the maximal receptor activation was achieved), the Hill coefficient as well as the maximal response in % of the maximal stimulatory effect obtained with saturating concentrations of L-AP4 were calculated (see FIG. 1).
# A depression of the signal observed after addition of the EC20 concentration of L-AP4was indicative of an inhibitory activity of the test compound.
# T1 sequence (Q14833 33-912): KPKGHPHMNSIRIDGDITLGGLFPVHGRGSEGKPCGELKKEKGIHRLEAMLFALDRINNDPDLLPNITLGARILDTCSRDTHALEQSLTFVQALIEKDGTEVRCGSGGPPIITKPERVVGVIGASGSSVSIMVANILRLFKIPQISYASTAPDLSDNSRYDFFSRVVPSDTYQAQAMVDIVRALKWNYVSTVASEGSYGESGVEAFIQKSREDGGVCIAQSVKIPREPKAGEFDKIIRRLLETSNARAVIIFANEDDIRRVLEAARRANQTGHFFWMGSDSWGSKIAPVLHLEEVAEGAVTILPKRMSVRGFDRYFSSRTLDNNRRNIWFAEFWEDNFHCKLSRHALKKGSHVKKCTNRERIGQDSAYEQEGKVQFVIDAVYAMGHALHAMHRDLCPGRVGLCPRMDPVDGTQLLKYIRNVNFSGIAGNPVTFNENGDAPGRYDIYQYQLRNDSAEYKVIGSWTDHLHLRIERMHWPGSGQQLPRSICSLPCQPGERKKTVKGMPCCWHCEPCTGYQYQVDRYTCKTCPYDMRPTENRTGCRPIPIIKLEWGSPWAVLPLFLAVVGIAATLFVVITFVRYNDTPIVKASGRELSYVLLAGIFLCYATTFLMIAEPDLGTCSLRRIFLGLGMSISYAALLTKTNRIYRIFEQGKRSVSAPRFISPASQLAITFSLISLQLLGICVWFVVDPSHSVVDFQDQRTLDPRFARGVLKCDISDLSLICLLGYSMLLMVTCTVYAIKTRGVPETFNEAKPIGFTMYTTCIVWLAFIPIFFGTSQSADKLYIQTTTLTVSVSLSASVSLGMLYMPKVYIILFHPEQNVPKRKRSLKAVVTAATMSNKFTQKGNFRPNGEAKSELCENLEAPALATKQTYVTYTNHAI
SMILES,Emax,EC50
"CN1C(=O)N(c2c(F)cc(C#Cc3cccnc3)cc2F)C(=O)CC1(c1ccccc1)C(F)(F)F (racemic) [Example 72, (6RS)-3-[2,6-Difluoro-4-[2-(3-pyridyl)ethynyl]phenyl]-1-methyl-6-phenyl-6-(trifluoromethyl)hexahydropyrimidine-2,4-dione]",91%,82 nM
"CC12CC(=O)N(c3c(F)cc(C#Cc4ccccc4)cc3Cl)C(=O)N1CCNC2=O (racemic) [Example 86, (9aRS)-7-[2-Chloro-6-fluoro-4-(2-phenylethynyl)phenyl]-9a-methyl-2,3,4,9-tetrahydropyrazino[1,2-c]pyrimidine-1,6,8-trione]",100%,108 nM
"CN1C(=O)N(c2c(F)cc(C#Cc3ccccc3)cc2F)C(=O)C2CCCC21C (stereo in doubt) [Example 14, (4aRS,7aRS)-3-[2,6-Difluoro-4-(2-phenylethynyl)phenyl]-1,7a-dimethyl-4a,5,6,7-tetrahydrocyclopenta[d]pyrimidine-2,4-dione]",119%,125 nM
"CN1C(=O)N(c2c(F)cc(C#Cc3cccnc3)cc2F)C(=O)CC1(C)c1ccccc1 (stereo in doubt) [Example 19, (6S)-3-[2,6-Difluoro-4-[2-(3-pyridyl)ethynyl]phenyl]-1,6-dimethyl-6-phenyl-hexahydropyrimidine-2,4-dione]",178%,50 nM
"CN1C(=O)N(c2c(F)cc(C#Cc3cccnc3)cc2F)C(=O)CC1(C)c1ccccc1 (stereo in doubt) [Example 20, (6R)-3-[2,6-Difluoro-4-[2-(3-pyridyl)ethynyl]phenyl]-1,6-dimethyl-6-phenyl-hexahydropyrimidine-2,4-dione]",175%,239 nM
"CN1C(=O)N(c2c(F)cc(C#Cc3ccccc3)cc2F)C(=O)CC1(C)C [Example 1, 3-[2,6-Difluoro-4-(2-phenylethynyl)phenyl]-1,6,6-trimethyl-hexahydropyrimidine-2,4-dione]",191%,92 nM
"CN1C(=O)N(c2ccc(C#Cc3ccccc3)cc2Cl)C(=O)CC1(C)C [Example 2, 3-[2-Chloro-4-(2-phenylethynyl)phenyl]-1,6,6-trimethyl-hexahydropyrimidine-2,4-dione]",107%,341 nM
"CN1C(=O)N(c2ccc(C#Cc3ccccc3)cc2Cl)C(=O)CC12CCCCC2 [Example 3, 3-[2-Chloro-4-(2-phenylethynyl)phenyl]-1-methyl-1,3-diazaspiro[5.5]undecane-2,4-dione]",105%,245 nM
"CN1C(=O)N(c2ccc(C#Cc3ccccc3)cc2Cl)C(=O)CC12CCOCC2 [Example 4, 3-[2-Chloro-4-(2-phenylethynyl)phenyl]-1-methyl-9-oxa-1,3-diazaspiro[5.5]undecane-2,4-dione]",103%,388 nM
"CN1C(=O)N(c2ccc(C#Cc3ccccc3)cc2Cl)C(=O)CC12CCC2 [Example 5, 7-[2-Chloro-4-(2-phenylethynyl)phenyl]-5-methyl-5,7-diazaspiro[3.5]nonane-6,8-dione]",93%,304 nM
"CN1C(=O)N(c2c(F)cc(C#Cc3ccccc3)cc2F)C(=O)CC12CCCC2 [Example 6, 8-[2,6-Difluoro-4-(2-phenylethynyl)phenyl]-6-methyl-6,8-diazaspiro[4.5]decane-7,9-dione]",142%,72 nM
"CN1C(=O)N(c2c(F)cc(C#Cc3cccnc3)cc2Cl)C(=O)CC1(C)C [Example 9, 3-[2-Chloro-6-fluoro-4-[2-(3-pyridyl)ethynyl]phenyl]-1,6,6-trimethyl-hexahydropyrimidine-2,4-dione]",110%,429 nM
"CCN1C(=O)N(c2c(F)cc(C#Cc3cccnc3)cc2Cl)C(=O)CC1(C)C [Example 10, 3-[2-Chloro-6-fluoro-4-[2-(3-pyridyl)ethynyl]phenyl]-1-ethyl-6,6-dimethyl-hexahydropyrimidine-2,4-dione]",169%,256 nM
"CCC1(CC)CC(=O)N(c2c(F)cc(C#Cc3ccccc3)cc2F)C(=O)N1 [Example 21, 3-[2,6-Difluoro-4-(2-phenylethynyl)phenyl]-6,6-diethyl-hexahydropyrimidine-2,4-dione]",106%,145 nM
"CCC1(CC)CC(=O)N(c2c(F)cc(C#Cc3ccccc3)cc2F)C(=O)N1C [Example 22, 3-[2,6-Difluoro-4-(2-phenylethynyl)phenyl]-6,6-diethyl-1-methyl-hexahydropyrimidine-2,4-dione]",137%,73 nM
"CN1C(=O)N(c2c(F)cc(C#Cc3ccccc3)cc2F)C(=O)C[C@@]1(C)c1cccnc1 [Example 49, (6S)-3-[2,6-Difluoro-4-(2-phenylethynyl)phenyl]-1,6-dimethyl-6-(3-pyridyl)hexahydropyrimidine-2,4-dione]",98%,37 nM
"CN1C(=O)N(c2ncc(C#Cc3ccccc3)cc2F)C(=O)C[C@@]1(C)c1cccnc1 [Example 50, (6S)-3-[3-Fluoro-5-(2-phenylethynyl)-2-pyridyl]-1,6-dimethyl-6-(3-pyridyl)hexahydropyrimidine-2,4-dione]",164%,104 nM
"CCN1C(=O)N(c2c(F)cc(C#Cc3ccccc3)cc2F)C(=O)C[C@@]1(C)c1cccnc1 [Example 52, (6S)-3-[2,6-Difluoro-4-(2-phenylethynyl)phenyl]-1-ethyl-6-methyl-6-(3-pyridyl)hexahydropyrimidine-2,4-dione]",99%,48 nM
"CN1C(=O)N(c2c(F)cc(C#Cc3cccnc3)cc2F)C(=O)C[C@@]1(C)c1cccnc1 [Example 53, (6S)-3-[2,6-Difluoro-4-[2-(3-pyridyl)ethynyl]phenyl]-1,6-dimethyl-6-(3-pyridyl)hexahydropyrimidine-2,4-dione]",110%,80 nM
"Cc1ccc([C@]2(C)CC(=O)N(c3c(F)cc(C#Cc4ccccc4)cc3F)C(=O)N2C)cn1 [Example 54, (6S)-3-[2,6-Difluoro-4-(2-phenylethynyl)phenyl]-1,6-dimethyl-6-(6-methyl-3-pyridyl)hexahydropyrimidine-2,4-dione]",98%,70 nM
"CN1C(=O)N(c2c(F)cc(C#Cc3ccccc3)cc2F)C(=O)C[C@@]1(C)c1ccncn1 [Example 55, (6S)-3-[2,6-Difluoro-4-(2-phenylethynyl)phenyl]-1,6-dimethyl-6-pyrimidin-4-yl-hexahydropyrimidine-2,4-dione]",106%,44 nM
"CN1C(=O)N(c2c(F)cc(C#Cc3ccccc3)cc2F)C(=O)C[C@@]1(C)c1cncnc1 [Example 56, (6S)-3-[2,6-Difluoro-4-(2-phenylethynyl)phenyl]-1,6-dimethyl-6-pyrimidin-5-yl-hexahydropyrimidine-2,4-dione]",99%,79 nM
"CN1C(=O)N(c2c(F)cc(C#Cc3ccccc3)cc2F)C(=O)C[C@@]1(C)c1cnccn1 [Example 57, (6S)-3-[2,6-Difluoro-4-(2-phenylethynyl)phenyl]-1,6-dimethyl-6-pyrazin-2-yl-hexahydropyrimidine-2,4-dione]",102%,117 nM
"CN1C(=O)N(c2c(F)cc(C#Cc3ccccc3)cc2F)C(=O)C[C@@]1(C)c1cccnn1 [Example 58, (6S)-3-[2,6-Difluoro-4-(2-phenylethynyl)phenyl]-1,6-dimethyl-6-pyridazin-3-yl-hexahydropyrimidine-2,4-dione]",99%,49 nM
"CN1C(=O)N(c2c(F)cc(C#Cc3ccccc3)cc2F)C(=O)C[C@@]1(C)c1cncc(F)c1 [Example 59, (6S)-3-[2,6-Difluoro-4-(2-phenylethynyl)phenyl]-6-(5-fluoro-3-pyridyl)-1,6-dimethyl-hexahydropyrimidine-2,4-dione]",89%,75 nM
"CN1C(=O)N(c2c(F)cc(C#Cc3ccccc3)cc2F)C(=O)C[C@@]1(C)c1ccnc(Cl)c1 [Example 60, (6S)-6-(2-Chloro-4-pyridyl)-3-[2,6-difluoro-4-(2-phenylethynyl)phenyl]-1,6-dimethyl-hexahydropyrimidine-2,4-dione]",113%,38 nM
